Results on 4 compounds are retold here after PMC8229775, “β-Thujaplicin Enhances TRAIL-Induced Apoptosis via the Dual Effects of XIAP Inhibition and Degradation in NCI-H460 Human Lung Cancer Cells” (Medicines, 2021).

For this assay, the target named is T1, X-linked inhibitor of apoptosis protein (XIAP) (Homo sapiens, UniProt P98170).
T1 construct: GST-tagged XIAP-BIR3 domain
T1 sequence (P98170 241-356 limits assumed): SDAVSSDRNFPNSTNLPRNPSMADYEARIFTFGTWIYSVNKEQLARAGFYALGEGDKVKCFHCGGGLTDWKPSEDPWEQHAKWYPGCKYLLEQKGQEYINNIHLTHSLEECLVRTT
The assay can be described thus: fluorescence polarization displacement of 5-FAM Smac/Diablo peptide from recombinant BIR3. It counts as binding. On the technique in general: Fluorescence polarisation rises when a labelled molecule tumbles more slowly, as on binding a larger partner.
Turning to `CCCCCCCCCCCC1=C(O)C(=O)C=C(O)C1=O` [Embelin], the 50% inhibitory concentration (IC50) (as a rule, the concentration needed to halve the response being measured) was found to be 3.1 ± 0.6 µM.

Take `O=c1cccccc1O` [Tropolone]: the half-inhibitory concentration (IC50) was found to be 83.1 ± 6.9 µM.

For `CC(C)c1cccc(=O)c(O)c1` [β-thujaplicin], the IC50 is 58.5 ± 2.8 µM.

Take `CC(C)c1ccc(O)c(=O)cc1` [γ-thujaplicin]: the half-maximal inhibitory concentration (IC50) worked out at 56.2 ± 2.9 µM.
